# Data reported in patent US8153676B2, “Use of compounds of formula A-R-Xo pharmaceutically acceptable salts thereof for producing a pharmaceutically preparations” (priority 2006, dated 2012).
# What was measured:
# [1] = Acute toxicity in male CD rats; type: in vivo; conditions: male, CD, rat, in vivo, po
# Description: (§1) The acute toxicity of 12-imidazolyl-1-dodecanol (substance 1) and 12-(1)-imidazolyl-dodecane (substance 2) was tested in male CD rats. For 12-imidazolyl-1-dodecanol the result was an LD50 (14 days) of 1,000 mg/kg, b.w., p.o.; and for 12-(1)-imidazolyl-dodecane an LD50 (14 days) of 1,000 mg/kg b.w., p.o.
# male CD rats = assay: Acute toxicity in male CD rats; type: in vivo
# Description: as §1
# cytochrome P450 [2] = assay: In vitro inhibition of cytochrome P450 activity; type: biochemical; conditions: for in vitro inhibition of cytochrome P450 activity: compared with 10-undecinyl acid
# cytochrome P450 [3] = assay: In vivo activity (cytochrome P450 inhibition)
# HepG2 liver cancer cells = assay: Migration test of HepG2 cells in collagen matrix; type: cell-based; conditions: for Mean migratory activity: control 15%; for drop of migratory activity of the cells: control migratory activity 15%, 900 minutes
# Description: Migration test conditions: HepG2 liver cancer cells were embedded in a collagen matrix. Thirty individual cells were inspected continuously by photographic means for 900 minutes. The average percentage of migrating cells was determined. Result 2: […]
# HepG2 (liver cells) = assay: Antineoplastic effect: cancer cell proliferation, cell count after four day incubation; type: cell-based; conditions: read-out: half maximum inhibitory concentration IC50 (cancer cell proliferation)
# Description: (§2) To this end, four cancer cell lines were seeded into “24 well plates” and allowed to grow for 24 hours. Then a wide array of the concentrations of the test substance 12-imidazolyl-1-dodecanol, dissolved in DMSO, was added to the cell suspensions. The DMSO concentration in the cell medium was 0.01%. […] In all cases a strong inhibition of cancer cell proliferation was determined.
# (§3) The following half maximum inhibitory concentrations—IC50 values—of 12-imidazolyl-1-dodecanol were determined: […]
# PC-3 (prostate cells) = assay: as above; type: cell-based; conditions: PC-3, four day incubation, read-out: half maximum inhibitory concentration IC50 (cancer cell proliferation)
# Description: as §2, §3
# Panc-1 (pancreas cells) [4] = assay: as above; type: cell-based; conditions: Panc-1, four day incubation, read-out: half maximum inhibitory concentration IC50 (cancer cell proliferation)
# Description: as §2, §3
# [5] = test system: SW620 (large intestine cells); assay: as above; type: cell-based; conditions: read-out: half maximum inhibitory concentration IC50 (cancer cell proliferation)
# Description: as §2, §3
# [6] = test system: MRC-5 (lung fibroblast cells); assay: LDH cytotoxicity test; type: cell-based; conditions: MRC-5, LDH cytotoxicity test
# Description: (§4) The half maximum cytotoxicity of 12-imidazolyl-1-dodecanol was determined with the LDH cytotoxicity test.
# Panc-1 (pancreas cells) [7] = assay: LDH cytotoxicity test; type: cell-based; conditions: Panc-1, LDH cytotoxicity test
# Description: as §4
# [8] = male, CD, rat, in vivo, po, 14 days
compound,measurement,setting,value
CCCCCCCCCCCCn1ccnc1 [12-(1)-imidazolyl-dodecane],LD50 at 14 days,[1],1000 mg/kg
same,First intolerance reaction,male CD rats; [8],"substance 2: 500 mg/kg b.w., p.o."
same,No effect at the dose rate,male CD rats; [8],"substance 2: 250 mg/kg b.w., p.o."
C#CCCCCCCCCCCCCCCCC(=O)O [17-octadecinyl-1-acid],effectiveness in vitro,cytochrome P450 [2],especially effective in vitro
C#CCCCCCCCCCOS(=O)(=O)O [10-undecinyl-sulfate],in vitro inhibition of cytochrome P450 activity,cytochrome P450 [2],comparably high inhibition
same,in vivo activity compared with 10-undecinyl acid,cytochrome P450 [3],far superior
"C#CCCCCCCCCC(C)(C)C(=O)O [2,2-dimethyl-11-dodecinyl acid]",in vitro inhibition of cytochrome P450 activity,cytochrome P450 [2],comparably high inhibition
same,in vivo activity compared with 10-undecinyl acid,cytochrome P450 [3],far superior
insulin: insulin added to HepG2 cells to stimulate migratory activity [reference compound],Mean migratory activity,HepG2 liver cancer cells; insulin (100 ng/ml) alone,38%
same,increase in the migratory activity (times),HepG2 liver cancer cells; insulin versus control,2.5 times
12-imidazolyl-1-dodecanol,First intolerance reaction,"male CD rats; male CD rats, p.o.","substance 1: 1,000 mg/kg b.w., p.o."
same,No effect at the dose rate,"male CD rats; male CD rats, p.o.","substance 1: 500 mg/kg b.w., p.o."
same,LD50 (14 days),"male CD rats; male CD rats, p.o., 14 days","1,000 mg/kg, b.w."
same,IC50,HepG2 (liver cells),50 nM
same,IC50,PC-3 (prostate cells),50 nM
same,IC50,Panc-1 (pancreas cells) [4],50 nM
same,IC50,[5],100 nM
same,half maximum cytotoxicity,[6],500 µM
same,half maximum cytotoxicity,Panc-1 (pancreas cells) [7],500 µM
same,half maximum cytotoxicity (as restated in text),Panc-1 (pancreas cells) [7],500 μm
same,drop of migratory activity of the cells,HepG2 liver cancer cells; 1 μM in matrix medium,50%
same,drop of migratory activity of the cells,HepG2 liver cancer cells; 10 μM in matrix medium,75%
same,Mean migratory activity,HepG2 liver cancer cells; insulin and 12-imidazolyl-1-dodecanol (10 μl),15%
same,effect on insulin-induced increase in migratory activity,"HepG2 liver cancer cells; with insulin, after 450 min. observation time",blocks this increase completely
same,mean migratory activity below that of the control group,"HepG2 liver cancer cells; with insulin, after 900 minutes",13%
